Results on three compounds are retold here after patent publication US20240091185A1, “COMPOSITION FOR IMPROVING COGNITIVE FUNCTION, AGENT FOR IMPROVING COGNITIVE FUNCTION, AND FOOD FOR IMPROVING COGNITIVE FUNCTION” (AJINOMOTO CO., INC., priority 2021, published 2024).

Type in all cases: in vivo, mouse
For assay [1], the system named is learning and/or memory functions of C57Bl/6j mice (LPS-induced learning and/or memory disorder model). The assay can be described thus: Novel object recognition test in LPS-induced learning and/or memory disorder model (Experimental Example 1). As to conditions: 3 g/kg body weight oral once a day for 13 days; LPS 250 μg/kg i.p. day 4 to 10; Tukey; Example 1 p<0.05. On the procedure:
To the control LPS group was orally administered 10 mL of distilled water per kg of mouse body weight once a day for 13 consecutive days.
The agent of Comparative Example 2 was suspended in distilled water at a concentration of 0.3 g/mL, and 10 mL (3 g/kg body weight) was orally administered per kg of mouse body weight once a day for 13 consecutive days to the group to be administered with the agent of Comparative Example 2 (LPS+Gly3). […]
During the training trial, the ratio (%) of the time of contact with object A1 or A2 with a shorter contact time to the total time of contact with the two objects (A1 and A2) placed in the experimental arena was calculated.
During the retention trial, the ratio (%) of the time of contact with object B to the total time of contact with the two objects (A1 and B, or A2 and B) placed in the experimental arena was determined. […]

Assay [2] has as its system Sonic hedgehog (Shh) gene. The assay can be described thus: Hippocampal gene expression level by RNA-seq (TPM), Shh. As to conditions: oral once a day for 13 days (Example 1 3 g/kg, Comp. Ex. 4 2 g/kg, Comp. Ex. 5 1 g/kg); Dunnett; p<0.05 for Example 1. On the procedure:
(§1) At that time, as comparison samples, 2 g of glycine was used as the agent of Comparative Example 4, and 1 g of L-serine was used as the agent of Comparative Example 5, and the action on gene expression in the mouse hippocampus was similarly examined.
(§2) The agent of Comparative Example 4 was suspended in 0.5 wt % methylcellulose aqueous solution at a concentration of 0.2 g/mL, and 10 mL (2 g/kg body weight) was orally administered per kg of mouse body weight once a day for 13 consecutive days to the group to be administered with the agent of Comparative Example 4 (LPS+Gly2).
(§3) The agent of Comparative Example 5 was suspended in 0.5 wt % methylcellulose aqueous solution at a concentration of 0.1 g/mL, and 10 mL (1 g/kg body weight) was orally administered per kg of mouse body weight once a day for 13 consecutive days to the group to be administered with the agent of Comparative Example 5 (LPS+L-Ser1).
(§4) Hippocampal tissue was collected from each group of mice that had been administered with each suspension or vehicle shown in Table 5 for 13 consecutive days, total RNA was extracted from each individual separately, and RNA sequencing (RNA-seq) was performed. […] Samples from individuals suspected of being contaminated at the time of tissue collection were excluded from analysis.

The subject of assay [3] is Galanin and GMAP prepropeptide (Gal) gene. The assay can be described thus: Hippocampal gene expression level by RNA-seq (TPM), Gal. The note with it: oral once a day for 13 days (Example 1 3 g/kg, Comp. Ex. 4 2 g/kg, Comp. Ex. 5 1 g/kg); Dunnett; p<0.05 for Example 1. On the procedure: as §1, §2, §3, §4
Assay [4] relates to D-site of albumin promoter (albumin D-box) binding protein (Dbp) gene. Briefly: Hippocampal gene expression level by RNA-seq (TPM), Dbp. The note with it: oral once a day for 13 days (Example 1 3 g/kg, Comp. Ex. 4 2 g/kg, Comp. Ex. 5 1 g/kg); Dunnett; p<0.05 for Example 1. On the procedure:
as §1, §2, §3, §4

The test system of assay [5] is Family with sequence similarity 107 member a (Fam107a) gene. Briefly: Hippocampal gene expression level by RNA-seq (TPM), Fam107a. The note with it: oral once a day for 13 days (Example 1 3 g/kg, Comp. Ex. 4 2 g/kg, Comp. Ex. 5 1 g/kg); Dunnett; p<0.05 for Example 1. On the procedure:
as §1, §2, §3, §4

Assay [6] deals with Thyroid stimulating hormone receptor (TShr) gene. Briefly: Hippocampal gene expression level by RNA-seq (TPM), Tshr. The note with it: oral once a day for 13 days (Example 1 3 g/kg, Comp. Ex. 4 2 g/kg, Comp. Ex. 5 1 g/kg); Dunnett; p<0.05 for Example 1. On the procedure: as §1, §2, §3, §4

With `NCC(=O)O` [Comparative Example 2, glycine], the “RI value (%) during the retention trial, compared with the group orally administered with distilled water (LPS)” value in assay [1] was “significant difference was not observed”.

For `NCC(=O)O` [Comparative Example 4, glycine], the “expression of the Shh gene in hippocampus vs solvent alone (LPS)” value in assay [2] was “significant changes in the expression levels of genes were not observed”. Also, in assay [3], the “expression of the Gal gene in hippocampus vs solvent alone (LPS)” value is given as “significant changes in the expression levels of genes were not observed”. Besides, the “expression of the Dbp gene in hippocampus vs solvent alone (LPS)” value in assay [4] is “significant changes in the expression levels of genes were not observed”. Further, the “expression of the Fam107a gene in hippocampus vs solvent alone (LPS)” value in assay [5] was “significant changes in the expression levels of genes were not observed”. In addition, the “expression of the Tshr gene in hippocampus vs solvent alone (LPS)” value in assay [6] is “significant changes in the expression levels of genes were not observed”.

`N[C@@H](CO)C(=O)O` [Comparative Example 5, L-serine]: in assay [2], the “expression of the Shh gene in hippocampus vs solvent alone (LPS)” value was “significant changes in the expression levels of genes were not observed”. Besides, the “expression of the Gal gene in hippocampus vs solvent alone (LPS)” value in assay [3] is “significant changes in the expression levels of genes were not observed”. Also, the “expression of the Dbp gene in hippocampus vs solvent alone (LPS)” value in assay [4] is “significant changes in the expression levels of genes were not observed”. In addition, the “expression of the Fam107a gene in hippocampus vs solvent alone (LPS)” value in assay [5] was “significant changes in the expression levels of genes were not observed”. The “expression of the Tshr gene in hippocampus vs solvent alone (LPS)” value in assay [6] is given as “significant changes in the expression levels of genes were not observed”.
